In data set [1] the test system is VCAM-1. Description: In Vitro VCAM-1 Assay - Method 1 (TNF-α stimulated endothelial cells, surface VCAM-1 ELISA). Type of data set: cell-based. The following applies: Homo sapiens, Endothelial cell; HAEC or HPAEC, TNF-α 1 ng/ml with compound approximately 16 hours. On the procedure: Cell Culture and compound dosing: Cultured primary human aortic (HAEC) or pulmonary (HPAEC) endothelial cells were obtained from Clonetics, Inc., and were used below passage 9. Cells were seeded in 96 well plates such that they would reach 90–95% confluency by the following day. On the following day the cells were stimulated with TNF-α (1 ng/ml) in the presence or absence of compounds dissolved in DMSO such that the final concentration of DMSO is 0.25% or less. To establish a dose curve for each compound, four concentrations in 2- to 5-fold increments were used. Cells were exposed to TNF-α and compounds for approximately 16 hours. The next day the cells were examined under microscope to score for visual signs of toxicity or cell stress.
Following 16 hr exposure to TNF-α and compound the media was discarded and the cells were washed once with Hanks Balanced Salt Solution (HBSS)/Phosphate buffered saline (PBS) (1:1). Primary antibodies against VCAM-1 (0.25 μg/ml in HBSS/PBS+5% FBS) were added and incubated for 30–60 minutes at 37° C. Cells were washed with HBSS/PBS three times, and secondary antibody Horse Radish Peroxidase (HRP)-conjugated goat anti-mouse IgG (1:500 in HBSS/PBS+5% FBS) were added and incubated for 30 minutes at 37° C. Cells were washed with HBSS/PBS four time and TMB substrate were added and incubated at room temperature in the dark until there was adequate development of blue color. The length of time of incubation was typically 5–15 minutes. 2N sulfuric acid was added to stop the color development and the data was collected by reading the absorbance on a BioRad ELISA plate reader at OD 450 nm. The results are expressed as IC50 values (the concentration (micromolar) of compound required to inhibit 50% of the maximal response of the control sample stimulated by TNF-α only). IC50's of tested compounds are tabulated in Biological Table 1.

A further data set has as its system TNF-α. Description: Cytokine screening: LPS-induced secretion of TNF-α from hPBMCs. Type of data set: cell-based. The conditions noted are these: Homo sapiens, Biological Table 3; LPS-induced secretion from hPBMN cells; average of at least three determinations. How it is done:
Fresh cryopreserved hPBMCs (1 million cells/ml; Clonetics, Inc.) were pretreated with test compound for 1 hr in lymphocyte growth media-3 (Clonetics, Inc.), followed by stimulation with 1 μg/ml of LPS for another 2 hr in the presence of test compound. Conditioned media was collected and assayed for secreted TNF-α, IL-1β and […] using commercially available human ELISA kits (R&D Systems). Samples were measured in duplicate and data presented as mean ± standard deviation. Each experiment was repeated at least three times with similar results.

A further data set concerns Balb/C mice. Description: In vivo asthma model (ovalbumin-sensitized mice, BAL fluid eosinophilia). The following applies: 25 mg/kg, sc, qd; BALF eosinophilia vs vehicle control. How it is done:
Balb/C mice (6–8 weeks old) were sensitized to ovalbumin (ova) (8 ug ova absorbed in 3.3 mg Alum inject) on days 0 and 5. On day 12, the mice were aerosol challenged with 0.5% ovalbumin dissolved in sterile saline for 1 hr in the AM, and then again in the PM (at least 4 hr apart). On day 14, the mice were anesthetized with ketamine/xylazine/acepromazine cocktail, exsanguinated, and then euthanized. Following blood collection, bronchoaveolar lavage (BAL) was performed on each animal. Total cell counts were conducted on the lavage fluid, which was subsequently diluted with cell media 1:1. Slides of the lavage fluid were made by spinning the samples with a cytospin centrifuge and then air drying. Cell differentials of the lavage fluid were determined by microscopic evaluation of hematoxylin and eosin-stained slides. Data are expressed as the % inhibition of eosinophilia in the BAL fluid compared to the vehicle control. […] The formulations used contained various mixtures of the following excipients (propylene glycol, polyethylene glycol, Tween 80, Glycofurol).

Another data set has as its system Female Lewis rats. Description: In vivo rheumatoid arthritis model (Freund's complete adjuvant, paw swelling). The conditions noted are these: paw swelling vs vehicle control. On the procedure:
Female Lewis rats (200–250 g) were sensitized with Freund's complete adjuvant (100 ug) by subcutaneous injection at the base of the tail. Paw swelling was monitored by measuring the volume of each foot with a plethysmometer on days 5, 8, 12–15. Animals were euthanized on day 15. […] Data is expressed as the % inhibition of paw swelling (AUC of the paw volume vs time curve d5–15) compared with vehicle control. The formulations used contained various mixtures of the following excipients (propylene glycol, polyethylene glycol, Tween 80, Glycofurol).

The test system of data set [2] is VCAM-1. Description: In Vitro VCAM-1 Assay - Method 2 (19 h predosing, 4 h TNFα stimulation, surface VCAM-1). Type of data set: cell-based. The following applies: Homo sapiens; HAEC or HPAEC, predosed 19 hours, TNFα 1.5 ng/ml 4 hours. On the procedure:
Cultured primary human aortic (HAEC) or pulmonary artery (HPAEC) endothelial cells are obtained from BioWhittaker (formerly Clonetics), and are used below passage 9. Cells are seeded in 96-well plates such that they will reach ˜95% confluency by the following day (i.e.10,000 cells/well). Compounds are reconstituted in DMSO (100%) and sonicated to ensure maximum dissolution. Dilutions are then made in DMSO to 500× of final concentrations. These stocks are then diluted 500× into cell culture media (EGM-2 Mv, BioWhittaker) and placed overnight in tissue culture incubator (37° C., 5% CO2) to allow maximum dissolution).
Media is removed from the cells and replaced with the prewarmed dosing media. Cells are predosed in this manner for 19 hours at 37° C., 5% CO2. Remove media again from the cells and replace with prepared dosing media containing TNFα (1.5 ng/ml). Allow stimulation to continue for 4 hours at 37° C., 5% CO2. Media is removed and saved for evaluation of secreted factors as needed. Cells are used for quantitating surface VCAM-1, followed by Hoescht nuclear stain for cell number to determine toxicity. Assay for surface VCAM-1 continues as described in Method 1. IC50's of tested compounds are tabulated in Biological Table 1.

A value given as a limit tells only on which side of the number the result lay.

As for `COCCOCCOCCOc1c(C(C)(C)C)cc(SC(C)(C)Sc2cc(C(C)(C)C)c(O)c(C(C)(C)C)c2)cc1C(C)(C)C` [Ex-19, 2,6-Di-tert-butyl-4-[1-(3,5-di-tert-butyl-4-{2-[2-(2-methoxyethoxy)-ethoxy]ethoxy}-phenyl-sulfanyl)-1-methylethylsulfanyl]phenol], in the data set on VCAM-1 [1], the IC50 was greater than 50 µM.
In the case of `CC(C)(Sc1cc(C(C)(C)C)c(O)c(C(C)(C)C)c1)Sc1cc(C(C)(C)C)c(OCC(CO)CO)c(C(C)(C)C)c1` [Ex-18, 2-{2,6-Di-tert-butyl-4-[1-(3,5-di-tert-butyl-4-hydroxyphenylsulfanyl)-1-methylethyl-sulfanyl]phenoxymethyl}propane-1,3-diol], the figures for the IC50 in the data set on VCAM-1 [1], in the data set with TNF-α and with VCAM-1 [2] were 13 µM, 4.5 µM and 6 µM, respectively. For the same compound, the “Inhibition of BAL fluid eosinophilia (asthma model)” value (“Inhibition … (asthma model)” for short) in the data set on Balb/C mice was 60 percentage. Also, the “Rheumatoid arthritis model (25 mg/kg, sc, qd, inhibition of paw swelling in percentage)” value with Female Lewis rats was 83 percentage.
With `CC(C)(Sc1cc(C(C)(C)C)c(O)c(C(C)(C)C)c1)Sc1cc(C(C)(C)C)c(OCCC(O)C(O)CCO)c(C(C)(C)C)c1` (stereo not drawn) [Ex-14, 6-{2,6-Di-tert-butyl-4-[1-(3,5-di-tert-butyl-4-hydroxy-phenylsulfanyl)-1-methyl-ethylsulfanyl]-phenoxy}-hexane-1,3,4-triol], the melting point fell in the range of 75 to 77 °C. For the same compound, the IC50 with VCAM-1 [1] worked out at 21 µM. In addition, the “Inhibition … (asthma model)” value with Balb/C mice was found to be 84 percentage. In the data set with VCAM-1 [2], this compound showed an IC50 of 9.2 µM.
As to `CC(C)(Sc1cc(C(C)(C)C)c(O)c(C(C)(C)C)c1)Sc1cc(C(C)(C)C)c(OCC(=O)NCCC(=O)O)c(C(C)(C)C)c1` [Ex-5, 3-(2-{2,6-Di-tert-butyl-4-[1-(3,5-di-tert-butyl-4-hydroxyphenylsulfanyl)-1-methylethylsulfanyl]phenoxy}acetylamino)propionic acid], in the data set with VCAM-1 [1], the IC50 came to 6 µM.
In turn, `CC(C)(Sc1cc(C(C)(C)C)c(O)c(C(C)(C)C)c1)Sc1cc(C(C)(C)C)c(OCCC[C@H](O)CO)c(C(C)(C)C)c1` [Ex-13, 5-{2,6-Di-tert-butyl-4-[1-(3,5-di-tert-butyl-4-hydroxy-phenylsulfanyl)-1-methyl-ethylsulfanyl]-phenoxy}-pentane-1,2(S)-diol] came in with a melting point of 68 to 71 °C. The “Inhibition … (asthma model)” value with Balb/C mice is on record as 60 percentage. The compound further gave an IC50 with VCAM-1 [2] of 11 µM.
For `CCOC1O[C@H](CO)[C@@H](COc2c(C(C)(C)C)cc(SC(C)(C)Sc3cc(C(C)(C)C)c(O)c(C(C)(C)C)c3)cc2C(C)(C)C)O1` (stereo partly drawn) [compound 9, 2,6-Di-tert-butyl-4-{1-[3,5-di-tert-butyl-4-(2-ethoxy-5(R)-hydroxymethyl-[1,3]dioxolan-4(R)-ylmethoxy)-phenylsulfanyl]-1-methyl-ethylsulfanyl}-phenol], the melting point fell in the range of 60 to 62 °C.
`COC[C@H](O)[C@@H](O)COc1c(C(C)(C)C)cc(SC(C)(C)Sc2cc(C(C)(C)C)c(O)c(C(C)(C)C)c2)cc1C(C)(C)C` [Ex-15, 1-{2,6-Di-tert-butyl-4-[1-(3,5-di-tert-butyl-4-hydroxyphenylsulfanyl)-1-methylethylsulfanyl]phenoxy}-4-methoxybutane-2(S),3(S)-diol] yielded a melting point of 62 to 64 °C.
Turning to `CC(C)(Sc1cc(C(C)(C)C)c(O)c(C(C)(C)C)c1)Sc1cc(C(C)(C)C)c(OCC[C@@H](O)CO)c(C(C)(C)C)c1` [Ex-11, 4-{2,6-Di-tert-butyl-4-[1-(3,5-di-tert-butyl-4-hydroxy-phenylsulfanyl)-1-methyl-ethylsulfanyl]-phenoxy}-butane-1,2(R)-diol], the IC50 with VCAM-1 [1] is greater than 50 µM; with TNF-α, 4.4 µM; in the data set with VCAM-1 [2], 7 µM. In the data set on Balb/C mice, the “Inhibition … (asthma model)” value came to 95 percentage. Besides, in the data set on Female Lewis rats, the “Rheumatoid arthritis model (25 mg/kg, sc, qd, inhibition of paw swelling in percentage)” value is recorded as 85 percentage.
`CN(CC(=O)O)C(=O)COc1c(C(C)(C)C)cc(SC(C)(C)Sc2cc(C(C)(C)C)c(O)c(C(C)(C)C)c2)cc1C(C)(C)C` [Ex-4, [(2-{2,6-Di-tert-butyl-4-[1-(3,5-di-tert-butyl-4-hydroxyphenylsulfanyl)-1-methylethylsulfanyl]phenoxy}acetyl)methylamino]acetic acid] showed a melting point of 115 to 119 °C. Besides, the IC50 with VCAM-1 [1] was 7 µM.
Compound `COC[C@@H](O)[C@H](O)COc1c(C(C)(C)C)cc(SC(C)(C)Sc2cc(C(C)(C)C)c(O)c(C(C)(C)C)c2)cc1C(C)(C)C` [Ex-16, 1-{2,6-Di-tert-butyl-4-[1-(3,5-di-tert-butyl-4-hydroxyphenylsulfanyl)-1-methylethylsulfanyl]phenoxy}-4-methoxybutane-2(R),3(R)-diol] registered a melting point of 68 to 70 °C. The “Inhibition … (asthma model)” value in the data set on Balb/C mice amounted to 44 percentage. Further, the “Rheumatoid arthritis model (25 mg/kg, sc, qd, inhibition of paw swelling in percentage)” value in the data set on Female Lewis rats came to 63 percentage.
On to `CC(C)(Sc1cc(C(C)(C)C)c(O)c(C(C)(C)C)c1)Sc1cc(C(C)(C)C)c(OCC(=O)NCC(=O)O)c(C(C)(C)C)c1` [Ex-3, (2-{2,6-Di-tert-butyl-4-[1-(3,5-di-tert-butyl-4-hydroxyphenylsulfanyl)-1-methylethylsulfanyl]phenoxy}acetylamino)acetic acid], for which the IC50 in the data set with VCAM-1 [1] is 6 µM.
`CC(C)(Sc1cc(C(C)(C)C)c(O)c(C(C)(C)C)c1)Sc1cc(C(C)(C)C)c(OCCO)c(C(C)(C)C)c1` [compound 17, 2,6-Di-tert-butyl-4-{1-[3,5-di-tert-butyl-4-(2-hydroxy-ethoxy)-phenylsulfanyl]-1-methyl-ethylsulfanyl}-phenol] gave a melting point of 146 to 147 °C.
`CC(C)(Sc1cc(C(C)(C)C)c(O)c(C(C)(C)C)c1)Sc1cc(C(C)(C)C)c(OCC(=O)NC(CO)CO)c(C(C)(C)C)c1` [Ex-6, 2-{2,6-Di-tert-butyl-4-[1-(3,5-di-tert-butyl-4-hydroxyphenylsulfanyl)-1-methyl-ethylsulfanyl]phenoxy}-N-(2-hydroxy-1-hydroxymethyl-ethyl)acetamide] registered a melting point of 163 to 164 °C. Further, the IC50 in the data set on VCAM-1 [1] was 6 µM.

Source of the values: patent US7271274B2, “Phenolic antioxidants for the treatment of disorders including arthritis, asthma and coronary artery disease” (AhteroGenics, Inc., priority 2004, dated 2007).
